Laboratory results reported in patent US9358276B2, “Methods of diagnosing and treating small intestinal bacterial overgrowth (SIBO) and SIBO-related conditions” (Cedars-Sinai Medical Center, priority 1999, dated 2016).
Several values for one entry are separate records, joined by “and”; a condition that tells them apart may be missing. Equal values may be shown once.

Test system: SIBO
Assay: Antibiotic treatment of Crohn's disease subjects with SIBO
Format: in vivo, human
Protocol: To correct for selection bias, a pilot study was conducted to determine the incidence of SIBO in subjects who had received a suspected diagnosis of Crohn's disease at Cedars-Sinai Medical Center=s IBD Center within the preceding three months.

[1] = Crohn's subjects, pooled over the named antibiotics

Substance: neomycin
- improvement in symptoms, breath test negative after antibiotic [1]: 69±27%
- improvement in symptoms, subjects remaining positive on breath test after antibiotic [1]: 20±0%
- eradication of SIBO (LBHT) (nine Crohn's patients): at least partially eradication of SIBO
- overall improvement in symptoms by VAS (nine Crohn's patients (n=8 reporting), 10-day course of 500 mg twice/daily): 57±32%
- eradication of SIBO (post-treatment LBHT) (pilot study, both subjects): completely at least partially eradicated
- overall improvement in symptoms (pilot study, two subjects, respectively, 10-day course): 60% and 80%
